How the values were obtained:
[1] = system: ADPKD cyst-lining epithelia; conditions: dose-dependent and time-dependent; cited from earlier work
[2] = system: human renal epithelial cells (HKC); conditions: cited from earlier work
PPAR-γ = target: T1, PPAR-γ (Homo sapiens, UniProt P37231); test: Transient transfection and transcription assay (luciferase reporter, U2OS cells); assay type: cell-based; conditions: 24 h treatment
T1 construct: expressed in transfected cells; host or cells: U2OS cells, transiently transfected with pcDNA3.1 expression vectors (FuGene6)
T1 sequence (P37231 1-505): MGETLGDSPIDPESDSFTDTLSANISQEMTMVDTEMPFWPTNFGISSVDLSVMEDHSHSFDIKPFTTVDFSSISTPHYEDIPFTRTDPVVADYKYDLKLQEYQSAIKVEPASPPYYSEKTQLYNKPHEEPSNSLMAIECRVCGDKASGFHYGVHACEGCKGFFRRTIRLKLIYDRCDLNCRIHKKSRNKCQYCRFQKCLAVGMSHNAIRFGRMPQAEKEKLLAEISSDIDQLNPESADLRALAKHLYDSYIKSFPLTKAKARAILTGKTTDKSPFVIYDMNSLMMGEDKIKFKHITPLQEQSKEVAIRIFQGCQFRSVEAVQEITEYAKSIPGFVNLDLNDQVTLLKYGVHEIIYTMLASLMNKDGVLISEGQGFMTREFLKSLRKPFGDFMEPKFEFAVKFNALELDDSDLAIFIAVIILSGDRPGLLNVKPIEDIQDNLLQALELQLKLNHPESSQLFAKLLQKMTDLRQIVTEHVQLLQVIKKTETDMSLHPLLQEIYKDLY
T1 sequence (P19793 1-462 partner): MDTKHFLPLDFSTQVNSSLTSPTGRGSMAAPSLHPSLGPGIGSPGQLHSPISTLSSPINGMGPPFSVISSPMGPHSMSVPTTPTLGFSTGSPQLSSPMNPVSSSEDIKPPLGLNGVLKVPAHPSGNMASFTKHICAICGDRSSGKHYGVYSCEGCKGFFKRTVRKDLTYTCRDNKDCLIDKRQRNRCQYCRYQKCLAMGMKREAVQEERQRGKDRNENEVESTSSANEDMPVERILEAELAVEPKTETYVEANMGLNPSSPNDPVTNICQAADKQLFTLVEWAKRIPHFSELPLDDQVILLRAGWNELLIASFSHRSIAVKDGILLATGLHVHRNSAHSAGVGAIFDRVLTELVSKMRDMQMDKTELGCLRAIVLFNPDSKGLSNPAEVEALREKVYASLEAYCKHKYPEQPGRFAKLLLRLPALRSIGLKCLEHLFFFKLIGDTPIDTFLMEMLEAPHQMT

SPC-A1 = test: Growth inhibition, modified MTT assay, SPC-A1; assay type: cell-based; conditions: SPCA1, mean of 3 independent tests
How it was run: (§1)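 Cells seeded 24 h in 10% FCS medium, switched to serum-free medium for 24 h, then exposed to graded compound concentrations in triplicate. Viability read by MTT (4 h), formazan dissolved in DMSO, OD at 492 nm; IC50 from sigmoidal fit, mean of 3 independent tests.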

T24 = test: Growth inhibition, modified MTT assay, T24; assay type: cell-based; conditions: Homo sapiens, T-24, mean of 3 independent tests
How it was run: as §1

HepG2 = test: Growth inhibition, modified MTT assay, HepG2; assay type: cell-based; conditions: Homo sapiens, mean of 3 independent tests
How it was run: as §1

MCF-7 = test: Growth inhibition, modified MTT assay, MCF-7; assay type: cell-based; conditions: Homo sapiens, MCF7; MCF-7, MTT, mean of 3 independent tests
How it was run: as §1

[3] = system: Han:SPRD rats, animal model of ADPKD; test: Administration of rosiglitazone on the Han:SPRD rats (earlier study); assay type: in vivo, rat; conditions: when they died, chronic high dose

SMILES	apoptosis of ADPKD cyst-lining epithelia [1]	proliferation of ADPKD cyst-lining epithelia [1]	effect on human renal epithelial cells (HKC) [2]	EC50 (PPAR-γ)	IC50 (SPC-A1)	IC50 (T24)	IC50 (HepG2)	IC50 (MCF-7)	melting point	heart and liver weight [3]
CCCCC/C=C/C=C1/C(=O)C=C[C@@H]1C/C=C\CCCC(=O)O [Compound 15d-PGJ2, 15d-PGJ2]	induce apoptosis	inhibit the proliferation	relatively weak	–	–	–	–	–	–	–
CCNc1nc(Oc2ccc(CC(C)(Oc3ccccc3)C(=O)O)cc2)cc(N2CCN(Cc3ccccc3)CC2)n1 (centres unmarked) [Compound 50, 3-{4-[6-(4-Benzyl-piperazin-1-yl)-2-ethylamino-pyrimidin-4-yloxy]-phenyl}-2-methyl-2-phenoxy-propionic acid]	–	–	–	6.03 µM	46.6 µM	> 50 µM	> 50 µM	33.7 µM	106 to 107 °C	–
CCN(CC)c1nc(Oc2ccc(CC(C)(Oc3ccccc3)C(=O)O)cc2)cc(N2CCN(Cc3ccccc3)CC2)n1 (centres unmarked) [Compound 51, 3-{4-[6-(4-Benzyl-piperazin-1-yl)-2-diethylamino-pyrimidin-4-yloxy]-phenyl}-2-methyl-2-phenoxy-propionic acid]	–	–	–	7.08 µM	36.6 µM	21.9 µM	37.5 µM	27.6 µM	120 to 121 °C	–
CC(Cc1ccc(Oc2cc(N3CCN(Cc4ccccc4)CC3)nc(N3CCCCC3)n2)cc1)(Oc1ccccc1)C(=O)O (centres unmarked) [Compound 52, 3-{4-[6-(4-Benzyl-piperazin-1-yl)-2-piperidin-1-yl-pyrimidin-4-yloxy]-phenyl}-2-methyl-2-phenoxy-propionic acid]	–	–	–	4.68 µM	7.8 µM	12.4 µM	17.9 µM	17.6 µM	125 to 126 °C	–
CC(Cc1ccc(Oc2cc(N3CCN(Cc4ccccc4)CC3)nc(N3CCOCC3)n2)cc1)(Oc1ccccc1)C(=O)O (centres unmarked) [Compound 53, 3-{4-[6-(4-Benzyl-piperazin-1-yl)-2-morpholin-4-yl-pyrimidin-4-yloxy]-phenyl}-2-methyl-2-phenoxy-propionic acid]	–	–	–	3.98 µM	22.4 µM	15.8 µM	22.2 µM	12.5 µM	127 to 129 °C	–
CC(Cc1ccc(Oc2cc(N3CCN(Cc4ccccc4)CC3)nc(N3CCCC3)n2)cc1)(Oc1ccccc1)C(=O)O (centres unmarked) [Compound 54, 3-{4-[6-(4-Benzyl-piperazin-1-yl)-2-pyrrolidin-1-yl-pyrimidin-4-yloxy]-phenyl}-2-methyl-2-phenoxy-propionic acid]	–	–	–	3.8 µM	> 50 µM	> 50 µM	> 50 µM	> 50 µM	126 to 127 °C	–
CN(CCOc1ccc(CC2SC(=O)NC2=O)cc1)c1ccccn1 (centres unmarked) [Rosiglitazone, reference compound]	–	–	–	–	59.8 µM	69 µM	80.2 µM	45.6 µM	–	heart and liver weight gain
